This is an account of results in the supplement of paper PMC11208160.
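For recombinant UMI read abundance after kanamycin selection (control-corrected) in this document: IS621 bridge recombinase in Escherichia coli cells against a fixed T5 target plasmid.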
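For recombinant barcode read abundance after kanamycin selection (control-corrected) in this document: IS621 recombinase and bridge RNA in Escherichia coli cells.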

The nature of the first data set: recombinant barcode read abundance after kanamycin selection (control-corrected) (log10(CPM+1)); higher = more efficient recombination; sequences stand for … in AGTGCAGAGAAAATCGGCCAGTTTTCTCTGCCTGCAGTCCGCATGCCGT…AGATTTATGCAGCGGACTGCCTTTCTCCCAAAGTGATAAACCGGACAGTATCATGGACCGGTTTTCCCGGTAATCCGTATTTGCAAGGTTGGTTTCACT; site = the 11-nt target. The protocol:
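Pooled E. coli target-specificity screen for the IS621 bridge recombinase. Each library plasmid pairs an 11-nt target (CT core) with a bridge RNA whose target-binding loop (9-nt LTG + 4-nt RTG) is reprogrammed; the rest of the 177-nt WT IS621 bridge RNA scaffold is fixed. The plasmid is co-electroporated with a WT donor plasmid; recombinase is induced with 0.1 mM IPTG and recombinants are selected on kanamycin. Recombinant barcodes are sequenced, converted to CPM, averaged over two biological replicates and corrected by the unselected control CPM. Molecule = full bridge RNA written as DNA: LTG = specificity nt 1-9, RTG = reverse complement of specificity nt 8-11, in the WT scaffold.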
As for “AAAATACCTTGGGTTCTAACCTGTTGCGG (site AAAATACCTCC)”, the “recombinant barcode read abundance (log10)” value was 1.68.
“AAAATACCTTGGGTTCTAACCTGTTGCGG (site CAAAGACCTCC)”: the “recombinant barcode read abundance (log10)” value amounted to 0.12.
“AAAATATCTTGGGTTCTAACCTGTTGCCT (site AAAATATCTAG)”: the “recombinant barcode read abundance (log10)” value came out at 0.438.
Still for that read-out and setting: to “AAAATATCTTGGGTTCTAACCTGTTGCCT (site TCGTACCCTTT)” belongs 0.0268.
Same read-out and setting: with “AAAATCTCTTGGGTTCTAACCTGTTGCCT (site AAAATCTCTAG)” the figure was 0.708; with “AAAATCTCTTGGGTTCTAACCTGTTGCCT (site AAACTCGCTAG)”, 0.113.
Still for that read-out and setting: with “AAACTAGCTTGGGTTCTAACCTGTTGCGG (site AAACTAGCTCC)” the figure was 2.27.
On to “AAACTAGCTTGGGTTCTAACCTGTTGCGG (site CGTGCGCCTAG)”, for which the “recombinant barcode read abundance (log10)” value was 0.288.
Turning to “AAACTCGCTTGGGTTCTAACCTGTTGCCT (site AAAATCTCTAG)”, the “recombinant barcode read abundance (log10)” value stood at 0.322.
As for “AAACTCGCTTGGGTTCTAACCTGTTGCCT (site AAACTCGCTAG)”, the “recombinant barcode read abundance (log10)” value is 1.8.
Regarding “AAATGGGCTTGGGTTCTAACCTGTTGCGG (site AAATGGGCTCC)”, the “recombinant barcode read abundance (log10)” value amounted to 2.5.
Same read-out and setting: to “AAATGGGCTTGGGTTCTAACCTGTTGCGG (site AGATGAGCTCC)” belongs 0.166; to “AACAAGACTTGGGTTCTAACCTGTTGCCT (site AACAAGACTAG)”, 1.29; to “AACAAGACTTGGGTTCTAACCTGTTGCCT (site GTACGACCTGT)”, 0.274.
Still for that read-out and setting: with “AACAATACTTGGGTTCTAACCTGTTGCCT (site AACAATACTAG)” the figure was 0.438.
With “AACAATACTTGGGTTCTAACCTGTTGCCT (site CTGTGAGCTCT)”, the “recombinant barcode read abundance (log10)” value amounted to 0.0738.
Consider “AACACGACTTGGGTTCTAACCTGTTGCCT (site AACACGACTAG)”, for which the “recombinant barcode read abundance (log10)” value was 0.711.
For the sequence “AACACGACTTGGGTTCTAACCTGTTGCCT (site GACAGGACTAG)”, the “recombinant barcode read abundance (log10)” value stood at 0.165.
Still for that read-out and setting: with “AACACTGCTTGGGTTCTAACCTGTTGCCT (site AACAATGCTAG)” the figure was 0.0705.
The same measure, in the same setting: to “AACACTGCTTGGGTTCTAACCTGTTGCCT (site AACACTGCTAG)” belongs 1.09; to “AACACTGCTTGGGTTCTAACCTGTTGCCT (site AACAGTGCTAG)”, 0.
On the same count and under the same terms, with “AACACTGCTTGGGTTCTAACCTGTTGCCT (site AACATTGCTAG)” the figure was 0.0625; with “AACAGTACTTGGGTTCTAACCTGTTGCCT (site AACAGTACTAG)”, 0.845; with “AACAGTACTTGGGTTCTAACCTGTTGCCT (site CACAGTACTAG)”, 0.406.
“AACAGTACTTGGGTTCTAACCTGTTGCCT (site GACAGTACTAG)”: the “recombinant barcode read abundance (log10)” value was 0.129.
Still for that read-out and setting: to “AACAGTACTTGGGTTCTAACCTGTTGCCT (site TACAGTACTAG)” belongs 0.17.
Same read-out and setting: to “AACATAACTTGGGTTCTAACCTGTTGCGT (site AACATAACTAC)” belongs 1.34; to “AACATAACTTGGGTTCTAACCTGTTGCGT (site TGTTGTCCTCA)”, 0.0331.
Still for that read-out and setting: to “AACCCTACTTGGGTTCTAACCTGTTGCCT (site AACCCTACTAG)” belongs 0.929; to “AACCCTACTTGGGTTCTAACCTGTTGCCT (site CACCCTACTAG)”, 0.328.
For “AACCCTACTTGGGTTCTAACCTGTTGCCT (site GACCCTACTAG)”, the “recombinant barcode read abundance (log10)” value was 0.0455.
Turning to “AACCCTACTTGGGTTCTAACCTGTTGCCT (site TACCCTACTAG)”, the “recombinant barcode read abundance (log10)” value was 0.193.
On the same count and under the same terms, with “AACCGCCCTTGGGTTCTAACCTGTTGCCT (site AACCGCCCTAC)” the figure was 0.899; with “AACCGCCCTTGGGTTCTAACCTGTTGCCT (site AACCGCCCTAG)”, 0.478.
On the same count and under the same terms, to “AACGACGCTTGGGTTCTAACCTGTTGCCT (site AACGACGCTAG)” belongs 1.02; to “AACGACGCTTGGGTTCTAACCTGTTGCCT (site ACCGAGGCTAG)”, 0.0126.
For “AACGCCTCTTGGGTTCTAACCTGTTGCCT (site AACGCCTCTAG)”, the “recombinant barcode read abundance (log10)” value amounted to 0.389.
In the case of “AACGCCTCTTGGGTTCTAACCTGTTGCCT (site CACGCCTCTAG)”, the “recombinant barcode read abundance (log10)” value was 0.125.
For “AACGCCTCTTGGGTTCTAACCTGTTGCCT (site GACGCCTCTAG)”, the “recombinant barcode read abundance (log10)” value worked out at 0.178.
The same measure, in the same setting: with “AACGCCTCTTGGGTTCTAACCTGTTGCCT (site TACGCCTCTAG)” the figure was 0.274; with “AACGTGTCTTGGGTTCTAACCTGTTGCCT (site AAAGTGTCTAG)”, 0.375; with “AACGTGTCTTGGGTTCTAACCTGTTGCCT (site AACGTGTCTAG)”, 2.57.
Still for that read-out and setting: with “AACGTGTCTTGGGTTCTAACCTGTTGCCT (site AAGGTGTCTAG)” the figure was 0.103; with “AACGTGTCTTGGGTTCTAACCTGTTGCCT (site AATGTGTCTAG)”, 0.543.
Same read-out and setting: with “AACTGAACTTGGGTTCTAACCTGTTGCCT (site AACTAAACTAG)” the figure was 0.18; with “AACTGAACTTGGGTTCTAACCTGTTGCCT (site AACTCAACTAG)”, 0.056.
For the sequence “AACTGAACTTGGGTTCTAACCTGTTGCCT (site AACTGAACTAG)”, the “recombinant barcode read abundance (log10)” value is 0.459.
In the case of “AACTGAACTTGGGTTCTAACCTGTTGCCT (site AACTTAACTAG)”, the “recombinant barcode read abundance (log10)” value stood at 0.0689.
Still for that read-out and setting: with “AACTTCCCTTGGGTTCTAACCTGTTGCCT (site AACTTCACTAG)” the figure was 0.0364; with “AACTTCCCTTGGGTTCTAACCTGTTGCCT (site AACTTCCCTAG)”, 0.315.
The same measure, in the same setting: to “AACTTCCCTTGGGTTCTAACCTGTTGCCT (site AACTTCGCTAG)” belongs 0.00996; to “AACTTCCCTTGGGTTCTAACCTGTTGCCT (site AACTTCTCTAG)”, 0.0342.
Same read-out and setting: with “AACTTCTCTTGGGTTCTAACCTGTTGCCT (site AACTTCACTAG)” the figure was 0.184.

The nature of the next data set: recombinant UMI read abundance after kanamycin selection (control-corrected) (log10(CPM+1)); higher = more efficient recombination; extreme values may be limits of the assay; sequences stand for … in AGTGCAGAGAAAATCGGCCAGTTTTCTCTGCCTGCAGTCCGCATGCCGTGGGACCCCTTGGGTTCTAACCTGTTGCCTAGATTTATGCAGCGGACTGCCTTTCTCCCAAAGTGATAAACCGG…AGGTTGGTTTCACT; site = the 11-nt donor. The procedure, abridged: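 Two replicates each of selected and unselected plating were used in this pooled Escherichia coli screen of donor and donor-binding-loop pairs for the IS621 bridge recombinase. Selection was with IPTG (0.07 mM) and kanamycin. Counts of recombinant UMIs, amplified across the donor–target junction, were converted to CPM, averaged, scaled by control-derived factors and reported as log10(CPM+1).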
In the case of “TTTGCTGCATGGACCGGTTTTCCCGGTAATCCGTATTTGTG (site TTCGCTGCTCA)”, the “recombinant UMI read abundance (log10)” value stood at 0.00352.
Consider “TTTGCTGCATGGACCGGTTTTCCCGGTAATCCGTATTTGTG (site TTGGCTGCTCA)”, for which the “recombinant UMI read abundance (log10)” value was 0.0177.
On the same count and under the same terms, with “TTTGCTGCATGGACCGGTTTTCCCGGTAATCCGTATTTGTG (site TTTGCTGCTCA)” the figure was 0.0238; with “TTTGGCCCATGGACCGGTTTTCCCGGTAATCCGTATTTGCC (site TTTGGCCCTGG)”, 0; with “TTTGTGACATGGACCGGTTTTCCCGGTAATCCGTATTTGAG (site TTTGTGACTCT)”, 0.0187.
The same measure, in the same setting: with “TTTGTGGCATGGACCGGTTTTCCCGGTAATCCGTATTTGCT (site TTTGAGGCTAG)” the figure was 0.
Still for that read-out and setting: with “TTTGTGGCATGGACCGGTTTTCCCGGTAATCCGTATTTGCT (site TTTGCGGCTAG)” the figure was 0.00488; with “TTTGTGGCATGGACCGGTTTTCCCGGTAATCCGTATTTGCT (site TTTGGGGCTAG)”, 0.022; with “TTTGTGGCATGGACCGGTTTTCCCGGTAATCCGTATTTGCT (site TTTGTGGCTAG)”, 0.113.
Turning to “TTTGTTCCATGGACCGGTTTTCCCGGTAATCCGTATTTGGT (site ATTGTTCCTAC)”, the “recombinant UMI read abundance (log10)” value worked out at 0.0334.
Take “TTTGTTCCATGGACCGGTTTTCCCGGTAATCCGTATTTGGT (site CTTGTTCCTAC)”: the “recombinant UMI read abundance (log10)” value was 0.00622.
Still for that read-out and setting: to “TTTGTTCCATGGACCGGTTTTCCCGGTAATCCGTATTTGGT (site GTTGTTCCTAC)” belongs 0.0225; to “TTTGTTCCATGGACCGGTTTTCCCGGTAATCCGTATTTGGT (site TTTGTTCCTAC)”, 0.0215.
